Test results from paper PMC10867212, “Comparative pharmacokinetics of polymyxin B in critically ill elderly patients with extensively drug-resistant gram-negative bacteria infections” (Frontiers in Pharmacology, 2024).
Read-outs that look alike come from different tables or passages of the source. Where a SMILES comes first, the peptide text is derived from it. Bridges are numbered along the chain shown (N, C = ends). [ ]: non-standard residue; d: D form. The star is where a group is joined. X1 = CC[C@H](C)CCCCC(=O)*; Dab = NCC[C@H](N)C(=O)O

What was measured:
[1] = Steady-state plasma pharmacokinetics of intravenous polymyxin B in critically ill patients (non-compartmental analysis); type: in vivo, human; conditions: for Normalized AUCss, 0–24 h: AUC adjusted to a daily dose of 1 mg/kg of TBW; for Cmin / Css, avg (average steady-state plasma concentration) / Cmax / AUC(0-t): HPLC-MS/MS; for Tmax: iv infusion of at least 1 h; for half-life: read-out: Half-time time (converted)
Excerpt: All adult patients admitted to the participating intensive care unit (ICU) in a teaching hospital between December 2021 and July 2023 were consecutively screened for entry into this prospective observational study. The ICU served a mixed population of medical, surgical, trauma, and neurologic patients. All critically ill patients (≥18 years) were eligible if they received intravenous PMB for more than 3 days (sulfate; PMB injection, Shanghai First Biochemical Pharmaceutical Co., Ltd., China) for the treatment of documented XDR-GNB infections. Exclusion criteria were 1) patients with anuria or who received blood purification therapy or extracorporeal membrane oxygenation during PMB treatment; 2) pregnant women. Informed written consent was obtained from each patient or a legal representative of the family. This study protocol was approved by the human ethics committees in Shandong Provincial Hospital Affiliated to Shandong First Medical University (protocol SWYX: No. 2021-356) and was carried out in accordance with the Declaration of Helsinki (2000) of the World Medical Association.
Patients were enrolled on the first day of intravenous PMB administration. This study continued for 28 days or until discharge from the hospital or death. According to the patient’s age, the enrolled patients were divided into two groups: the elderly group (≥65 years) and the young group (<65 years).
PMB was administrated intravenously with a loading dose of 2.0–2.5 mg/kg and maintenance doses of 1.25–1.5 mg/kg every 12 h, with at least 1 h infusion time. Calculation of both the loading dose and maintenance dose was based on the total body weight (TBW) of the patient. No dose adjustment was performed in patients with renal insufficiency and renal replacement therapy. Concurrent prescription of other potential nephrotoxic drugs, such as vancomycin, aminoglycoside, etc., was avoided as much as possible at any time during PMB treatment in our study. The initiation of PMB treatment as well as the concomitant antibiotics and their duration were at the discretion of the ICU physicians.
For steady-state PK assessment, blood samples were obtained after at least six doses of PMB. In each patient, six to eight blood samples (3 mL) were collected immediately 10 min before the infusion and 30 min and 1, 2, 3, 6, 8, and 12 h after the beginning of infusion in ethylenediaminetetraacetic acid anticoagulant tubes. Blood samples were immediately centrifuged at 3500 g for 10 min, and the plasma samples were collected and stored at −80°C until analysis. The PMB plasma concentrations were quantified by measuring both polymyxin B1 and B2 using validated high-performance liquid chromatography-tandem mass spectrometry.
The primary outcome was steady-state PMB exposure as reflected by AUCss, 0–24 h. Non-compartmental PK analysis was conducted using Phoenix WinNonlin software 8.3 (Certara, United States). The clinical variables were summarized as means with standard deviation for approximately normally distributed continuous variables or medians with interquartile range for non-normally distributed continuous variables and as frequencies and percentages for categorical variables. The normality of all data sets was determined using the Kolmogorov-Smirnov test. Categorical variables were analyzed by the chi-square or Fisher exact test, while continuous variables were analyzed by the two-tailed non-paired Student’s t-test or Mann-Whitney U test. […] All the analyses were performed with the use of the SPSS for Windows statistical program (version 22.0; IBM Corp., Armonk, NY).

[2] = ref Zavascki et al., 2008; Yun et al., 2015; cited from earlier work
Excerpt: PMB has been reported to accumulate in large quantities in the kidney, much more than in other organs, such as the heart, lungs, and brain. […] Considering that PMB is poorly recovered in urine (less than 1%) ([Zavascki et al., 2008]; [Yun et al., 2015]), it may be filtered from the glomerulus and reabsorbed in the proximal tubule.

[3] = all patients (n = 23), iv 1.25–1.5 mg/kg q12h, steady state, mean ± SD, SD
[4] = elderly group ≥65 years (n = 17), iv 1.25–1.5 mg/kg q12h, steady state, mean ± SD, SD
[5] = young group <65 years (n = 6), iv 1.25–1.5 mg/kg q12h, steady state, mean ± SD, SD

Compound: CC[C@H](C)CCCCC(=O)N[C@@H](CCN)C(=O)N[C@H](C(=O)N[C@@H](CCN)C(=O)N[C@H]1CCNC(=O)[C@H]([C@@H](C)O)NC(=O)[C@H](CCN)NC(=O)[C@H](CCN)NC(=O)[C@H](CC(C)C)NC(=O)[C@@H](Cc2ccccc2)NC(=O)[C@H](CCN)NC1=O)[C@@H](C)O [polymyxin B] (X1-[Dab]T[Dab][Dab][Dab][dF]L[Dab][Dab]T; lactam 4-C)
- Normalized AUCss, 0–24 h ([1]; all patients (n = 23), steady state, mean ± SD, SD): 52.31 ± 28.65 mg·h/L
- Cmin [1, 3]: 2990 ± 1990 ng/mL
- Css, avg (average steady-state plasma concentration) [1, 3]: 4200 ± 2230 ng/mL
- Normalized AUCss, 0–24 h ([1]; elderly group ≥65 years (n = 17), steady state, mean ± SD, SD): 55.23 ± 28.51 mg·h/L
- Cmax [1, 4]: 9230 ± 2840 ng/mL
- Cmin [1, 4]: 3110 ± 1790 ng/mL
- Css, avg (average steady-state plasma concentration) [1, 4]: 4320 ± 2110 ng/mL
- Clearance per TBW ([1]; elderly group ≥65 years (n = 17), per total body weight, iv, steady state, non-compartmental, mean ± SD, SD): 0.6 ± 0.4 mL/min/kg
- AUC(0-t) ([1]; human, elderly group ≥65 years (n = 17), iv 1.25–1.5 mg/kg q12h after loading dose, steady state (≥6 doses), non-compartmental, mean ± SD, SD, read-out: AUCss, 0–12 h): 51800 ± 25300 ng·h/mL
- Cmax ([1]; human, iv, all patients (n = 23), iv 1.25–1.5 mg/kg q12h, steady state, mean ± SD, SD, read-out: Cmax): 9410 ± 3120 ng/mL
- AUC(0-t) ([1]; human, iv, all patients (n = 23), iv 1.25–1.5 mg/kg q12h, steady state, non-compartmental, mean ± SD, SD, read-out: AUCss, 0–24 h): 71900 ± 41800 ng·h/mL
- AUC(0-t) ([1]; human, iv, all patients (n = 23), iv 1.25–1.5 mg/kg q12h after loading dose, steady state (≥6 doses), non-compartmental, mean ± SD, SD, read-out: AUCss, 0–12 h): 50300 ± 27000 ng·h/mL
- Tmax ([1]; human, iv, all patients (n = 23), steady state, mean ± SD, SD): 54.6 ± 29.4 min
- clearance ([1]; human, iv, all patients (n = 23), iv, steady state, non-compartmental, mean ± SD, SD, read-out: Clearance (converted)): 41.5 mL/min
- Vd ([1]; human, iv, all patients (n = 23), iv, steady state, non-compartmental, mean ± SD, SD, read-out: Volume of distribution): 24.7 ± 11.7 L
- clearance ([1]; human, iv, all patients (n = 23), per total body weight, iv, steady state, non-compartmental, mean ± SD, SD, read-out: Clearance per TBW (converted)): 0.6 mL/min/kg
- Vd ([1]; human, iv, all patients (n = 23), per total body weight, iv, steady state, non-compartmental, mean ± SD, SD, read-out: Volume of distribution per TBW): 0.37 ± 0.17 L/kg
- AUC(0-t) ([1]; human, iv, elderly group ≥65 years (n = 17), iv 1.25–1.5 mg/kg q12h, steady state, non-compartmental, mean ± SD, SD, read-out: AUCss, 0–24 h): 76200 ± 41800 ng·h/mL
- Tmax ([1]; human, iv, elderly group ≥65 years (n = 17), steady state, mean ± SD, SD): 56.5 ± 33.6 min
- clearance ([1]; human, iv, elderly group ≥65 years (n = 17), iv, steady state, non-compartmental, mean ± SD, SD, read-out: Clearance (converted)): 39.5 mL/min
- half-life ([1]; human, iv, elderly group ≥65 years (n = 17), iv, steady state, non-compartmental, mean ± SD, SD): 673 ± 323 min
- Vd ([1]; human, iv, elderly group ≥65 years (n = 17), iv, steady state, non-compartmental, mean ± SD, SD, read-out: Volume of distribution): 25.5 ± 12.9 L
- Vd ([1]; human, iv, elderly group ≥65 years (n = 17), per total body weight, iv, steady state, non-compartmental, mean ± SD, SD, read-out: Volume of distribution per TBW): 0.4 ± 0.19 L/kg
- Cmax ([1]; human, iv, young group <65 years (n = 6), iv 1.25–1.5 mg/kg q12h, steady state, mean ± SD, SD, read-out: Cmax): 9890 ± 4070 ng/mL
- AUC(0-t) ([1]; human, iv, young group <65 years (n = 6), iv 1.25–1.5 mg/kg q12h, steady state, non-compartmental, mean ± SD, SD, read-out: AUCss, 0–24 h): 59500 ± 43100 ng·h/mL
- Tmax ([1]; human, iv, young group <65 years (n = 6), steady state, mean ± SD, SD): 49.8 ± 15.6 min
- clearance ([1]; human, iv, young group <65 years (n = 6), iv, steady state, non-compartmental, mean ± SD, SD, read-out: Clearance (converted)): 47.5 mL/min
- half-life ([1]; human, iv, young group <65 years (n = 6), iv, steady state, non-compartmental, mean ± SD, SD): 394 ± 69.6 min
- Vd ([1]; human, iv, young group <65 years (n = 6), iv, steady state, non-compartmental, mean ± SD, SD, read-out: Volume of distribution): 22.3 ± 7.6 L
- clearance ([1]; human, iv, young group <65 years (n = 6), per total body weight, iv, steady state, non-compartmental, mean ± SD, SD, read-out: Clearance per TBW (converted)): 0.617 mL/min/kg
- Vd ([1]; human, iv, young group <65 years (n = 6), per total body weight, iv, steady state, non-compartmental, mean ± SD, SD, read-out: Volume of distribution per TBW): 0.29 ± 0.09 L/kg
- AUCss, 0–24 h (range) ([1]; range over the critically ill patients (n = 23), steady state): 11300 to 151280 ng·h/mL
- Normalized AUCss, 0–24 h ([1]; young group <65 years (n = 6), steady state, mean ± SD, SD): 44.03 ± 30.00 mg·h/L
- Cmin [1, 5]: 2650 ± 2640 ng/mL
- Css, avg (average steady-state plasma concentration) [1, 5]: 3880 ± 2750 ng/mL
- Recovery in urine [2]: less than 1%
